# Like-named read-outs stand apart in the source and are kept apart here.
# Columns and labels:
# [1] = target: T1, levetiracetam binding site (LBS) (Rattus norvegicus, UniProt Q02563); details: cited from earlier work; for displacement of LEV binding: rat brain LBS
# T1 construct: host or cells: crude rat brain membranes (Noyer et al. 1995; Gillard et al. 2003)
# [2] = target: T2, LBS (Rattus norvegicus, UniProt Q02563); assay: autoradiography of [3H]ucb 30889 binding on rat brain sections
# T2 construct: from tissue; host or cells: rat brain (crude membranes; 25 µm sections for autoradiography)
# T2 sequence (Q02563 whole entry): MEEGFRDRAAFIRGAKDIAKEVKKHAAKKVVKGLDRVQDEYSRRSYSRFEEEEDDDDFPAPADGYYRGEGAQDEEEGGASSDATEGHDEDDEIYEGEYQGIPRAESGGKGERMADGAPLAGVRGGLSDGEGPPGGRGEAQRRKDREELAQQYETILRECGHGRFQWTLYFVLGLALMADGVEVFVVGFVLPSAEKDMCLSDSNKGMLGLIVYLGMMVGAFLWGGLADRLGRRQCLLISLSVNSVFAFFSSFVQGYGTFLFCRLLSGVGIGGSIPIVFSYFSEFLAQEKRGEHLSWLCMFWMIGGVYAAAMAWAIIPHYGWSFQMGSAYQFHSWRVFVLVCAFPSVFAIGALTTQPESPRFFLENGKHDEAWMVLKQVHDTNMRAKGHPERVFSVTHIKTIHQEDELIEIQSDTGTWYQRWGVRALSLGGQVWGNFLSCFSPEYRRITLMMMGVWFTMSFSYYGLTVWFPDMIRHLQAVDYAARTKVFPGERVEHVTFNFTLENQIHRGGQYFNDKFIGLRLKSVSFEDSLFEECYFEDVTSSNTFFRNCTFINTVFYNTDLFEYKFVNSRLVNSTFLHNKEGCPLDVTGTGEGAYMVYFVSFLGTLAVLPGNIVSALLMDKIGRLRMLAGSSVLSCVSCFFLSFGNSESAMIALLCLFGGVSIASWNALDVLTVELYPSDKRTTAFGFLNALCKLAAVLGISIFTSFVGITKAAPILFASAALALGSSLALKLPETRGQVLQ
# Procedure: (§1) Binding experiments were conducted on crude rat brain membranes at 4° C. as described in Noyer et al. (Euro. J. Pharmacol. 286: 137-146 (1995)). Incubation time for equilibrium studies was 120 min. For kinetic and competition studies, [^3H]ucb 30889 (30 Ci/mmol) was used at a concentration of 1.3 nM in 0.5 ml of a Tris-HCl (pH 7.4) buffer containing 2 mM Mg^2+. Localization of the LBS in brain substructures was assessed by autoradiography on 25 μm thick slices incubated under similar conditions. Slides were then washed twice for 10 min at 4° C. in 50 mM Tris-HCl (pH 7.4) containing 0.5% BSA, dried and exposed for 3 weeks to [^3H]Hyperfilm at −20° C. Non-specific binding (NSB) was determined by the inclusion of 1 mM LEV during the incubation period.
# [3] = system: LBS in peripheral tissues; details: heart, kidneys, spleen, pancreas, adrenals, lungs and liver; radiolabel studies; cited from earlier work
# [4] = system: audiogenic-susceptible mouse; details: cited from earlier work
# [5] = system: COS-7; assay: [3H]ucb 30889 binding in cell types
# Procedure: To identify and characterize the LBS in situ, [^3H]ucb 30889 was used to map the LBS within the brain and to study both its cellular and subcellular distribution. For rat brain autoradiography, 25 μm slices were incubated with 1.3 nM [^3H]ucb 30889 for 120 min at 4° C. in 50 mM Tris-HCl buffer (pH 7.4). Binding assays with rat brain membranes and various neuronal cell lines were performed under similar conditions. […] For photolabeling, membranes were incubated with 40 nM [^3H]ucb 30889 for 120 min at 4° C. in the same buffer, followed by irradiation with UV-light for 30 min (Fuks et al., Eur. J. Pharmacol. 478:11-19 (2003)).
# In addition, a PC12 cell line subclone, PC12a, which is low in LBS, was used to establish a pool of PC 12 cells expressing hSV2A under stable antibiotic selection.
# [6] = system: LBS in peripheral tissues; assay: radioligand binding in peripheral tissues; design: species or system rat; details: 150 μg of protein/assay, 1.3 nM radioligand
# Procedure: as §1
# The limit of detection under the experimental conditions (150 μg of protein/assay and 1.3 nM of radioligand) was a Bmax of 200 fmol/mg protein.
# [7] = target: T3, soluble SV2A (Rattus norvegicus, UniProt Q02563); assay: binding to soluble SV2A (n-dodecyl-β-D-maltoside solubilized rat brain membranes)
# T3 construct: the soluble protein maintains its native structural conformation in n-dodecyl-β-D-maltoside; from tissue; host or cells: rat brain membranes, detergent supernatant (100,000 g)
# T3 sequence (Q02563 whole entry): as above
# Procedure: The rat brain membranes were diluted in a solubilization buffer (Tris-HCl 20 mM pH 7.4, 0.25 M sucrose, protease inhibitors Complete Roche) containing n-dodecyl-β-D-maltoside 15 mM and incubated for two hours at 4° C. Subsequently, the solution was centrifuged at 4° C. for one hour at 100,000 g. […] The supernatants were incubated with [^3H]ucb 30889 as described.
# [8] = target: T4, hSV2C (Homo sapiens, UniProt Q496J9); assay: [3H]ucb 30889 binding to hSV2C in transient COS-7 system
# T4 construct: expressed in transfected cells; host or cells: COS-7, transient
# T4 sequence (Q496J9 1-727): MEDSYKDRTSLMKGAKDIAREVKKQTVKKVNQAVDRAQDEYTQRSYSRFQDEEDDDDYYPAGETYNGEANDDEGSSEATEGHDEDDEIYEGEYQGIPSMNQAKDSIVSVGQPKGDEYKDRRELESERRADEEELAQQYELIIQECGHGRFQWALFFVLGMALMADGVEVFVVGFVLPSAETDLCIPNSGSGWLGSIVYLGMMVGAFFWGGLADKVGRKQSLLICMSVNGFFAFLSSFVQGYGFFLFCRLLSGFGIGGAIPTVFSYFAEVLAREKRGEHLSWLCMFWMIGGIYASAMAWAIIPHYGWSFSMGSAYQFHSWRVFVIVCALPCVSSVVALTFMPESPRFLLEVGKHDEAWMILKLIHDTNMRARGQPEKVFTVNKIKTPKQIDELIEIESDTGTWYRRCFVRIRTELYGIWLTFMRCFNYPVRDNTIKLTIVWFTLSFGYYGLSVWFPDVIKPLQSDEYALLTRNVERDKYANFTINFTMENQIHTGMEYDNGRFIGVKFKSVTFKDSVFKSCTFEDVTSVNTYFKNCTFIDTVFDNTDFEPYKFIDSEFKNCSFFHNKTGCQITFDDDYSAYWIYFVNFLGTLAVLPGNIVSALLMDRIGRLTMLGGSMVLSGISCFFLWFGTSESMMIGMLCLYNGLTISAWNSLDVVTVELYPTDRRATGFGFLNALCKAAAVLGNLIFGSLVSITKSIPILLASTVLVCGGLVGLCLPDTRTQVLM
# [9] = target: T5, hSV2B (Homo sapiens, UniProt Q7L1I2); assay: [3H]ucb 30889 binding to hSV2B in transient COS-7 system
# T5 construct: expressed in transfected cells; host or cells: COS-7, transient
# T5 sequence (Q7L1I2 whole entry): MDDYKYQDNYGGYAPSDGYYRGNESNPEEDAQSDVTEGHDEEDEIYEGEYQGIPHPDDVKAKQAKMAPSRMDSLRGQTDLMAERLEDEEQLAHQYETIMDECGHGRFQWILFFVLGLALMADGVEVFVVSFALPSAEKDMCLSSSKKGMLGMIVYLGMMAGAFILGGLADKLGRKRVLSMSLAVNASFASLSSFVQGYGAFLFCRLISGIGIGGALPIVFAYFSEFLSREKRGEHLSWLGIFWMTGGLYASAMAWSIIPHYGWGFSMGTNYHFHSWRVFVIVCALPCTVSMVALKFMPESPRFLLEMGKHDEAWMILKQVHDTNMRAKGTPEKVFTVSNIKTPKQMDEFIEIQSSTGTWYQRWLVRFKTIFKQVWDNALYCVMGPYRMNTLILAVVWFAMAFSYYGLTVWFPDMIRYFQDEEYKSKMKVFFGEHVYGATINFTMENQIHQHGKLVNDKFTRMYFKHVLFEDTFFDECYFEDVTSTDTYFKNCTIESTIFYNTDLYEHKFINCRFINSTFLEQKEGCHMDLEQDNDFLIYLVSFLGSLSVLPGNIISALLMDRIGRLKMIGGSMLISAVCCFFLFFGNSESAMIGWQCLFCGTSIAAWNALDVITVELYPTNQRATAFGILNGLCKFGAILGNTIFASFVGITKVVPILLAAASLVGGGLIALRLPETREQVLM
# [10] = target: T1, levetiracetam binding site (LBS); assay: [3H]ucb 30889 binding on crude rat brain membranes (kinetics, saturation, competition)
# [11] = target: T6, hSV2A (Homo sapiens, UniProt Q7L0J3); assay: [3H]ucb 30889 binding to hSV2A transiently expressed in COS-7 cells; details: displacement of [3H]ucb 30889, COS-7 cells
# T6 construct: expressed in transfected cells; host or cells: COS-7, transient, Lipofectamine 2000, pDEST 12.2 Gateway vector (CMV promoter)
# T6 sequence (Q7L0J3 whole entry): as the sequence (Q02563 whole entry) above, with E53D, A62S, A71T, D144E, T154A, S440G, A482S, V572I, L634M counted along it
# T1 sequence (Q02563 whole entry): as the sequence (Q02563 whole entry) above
smiles,measurement,setting,value
COc1ccc(C(=O)N2CCCC2=O)cc1 [aniracetam],displacement of LEV binding,[1],displaced LEV binding
NC(=O)N1c2ccccc2C=Cc2ccccc21 [carbamazepine],displacement of LEV binding,[1],do not displace LEV binding
CCC1(C)CC(=O)NC1=O (centres unmarked) [ethosuximide],displacement of LEV binding,[1],competed with LEV
NC(=O)OCC(COC(N)=O)c1ccccc1 [felbamate],displacement of LEV binding,[1],do not displace LEV binding
"CC[C@@H](C(N)=O)N1CCCC1=O [levetiracetam, (S)-α-ethyl-2-oxo-1-pyrrolidine acetamide]",affinity for LBS,[1]; radioligand [3H]LEV,only micromolar affinity
same,inhibition of [3H]ucb 30889 binding in brain sections,[2],can be inhibited by levetiracetam at concentrations equivalent to those observed in in vitro binding
same,specific binding in peripheral tissues,[3],no specific binding
same,suppression of seizures,[4],unexpected potent ability of LEV to suppress seizures
O=C1NC(=O)C(c2ccccc2)(c2ccccc2)N1 [phenytoin],displacement of LEV binding,[1],do not displace LEV binding
Cc1ccsc1C(=CCCN1CCC[C@@H](C(=O)O)C1)c1sccc1C [tiagabine],displacement of LEV binding,[1],do not displace LEV binding
"CC[C@@H](C(N)=O)N1CC(c2cccc(N=[N+]=[N-])c2)CC1=O (stereo partly drawn) [ucb 30889, (2S)-2-[4-(3-azidophenyl)-2-oxopyrrolidin-1-yl]butanamide]",binding to untransfected COS-7 cell line,[5],no binding above background
same,specific binding in peripheral tissues,[6],could not be detected
same,affinity for soluble SV2A compared with native membrane,[7],equivalent to that exhibited by ligands to the native membrane
same,binding to hSV2C,[8],no binding above background
same,binding to hSV2B,[9],no binding above background
same,Bmax,[10],5054±704 fmol/mg protein
CC[C@@H](C(N)=O)N1CCCC1=O [ucb L060],affinity to hSV2A compared with LEV,[11],significantly less affinity
CCCC(CCC)C(=O)O [valproate],displacement of LEV binding,[1],do not displace LEV binding
C=CC(N)CCC(=O)O (centres unmarked) [vigabatrin],displacement of LEV binding,[1],do not displace LEV binding
NS(=O)(=O)Cc1noc2ccccc12 [zonisamide],displacement of LEV binding,[1],do not displace LEV binding

# From US7465549B2 (UCB, S.A., priority 2002, dated 2008)
